Test results published in the CheMixHub ionic liquid set.

Assay: xn = mol fraction of the nth substance listed

CCCC[n+]1ccn(C)c1.F[B-](F)(F)F + O
Conditions | electrical conductivity [S/m] | viscosity [mPa·s]
308.15 K, 100 kPa, x1 = 7.98e-05 | 0.0658 | –
308.15 K, 100 kPa, x1 = 0.0003603 | – | 0.751
308.15 K, 100 kPa, x1 = 0.0003729 | – | 0.751
308.15 K, 100 kPa, x1 = 0.0007203 | – | 0.789
308.15 K, 100 kPa, x1 = 0.0007257 | – | 0.789
308.15 K, 100 kPa, x1 = 0.00108 | – | 0.83
308.15 K, 100 kPa, x1 = 0.0011 | – | 0.83
308.15 K, 100.3 kPa, x1 = 0.0005439 | – | 0.7296
308.15 K, 100.3 kPa, x1 = 0.0009901 | – | 0.7358
308.15 K, 100.3 kPa, x1 = 0.00501 | – | 0.7841
308.15 K, 100.3 kPa, x1 = 0.006973 | – | 0.8048
308.15 K, 100.3 kPa, x1 = 0.009052 | – | 0.835
308.15 K, 100.3 kPa, x1 = 0.01199 | – | 0.8681
308.15 K, 100.3 kPa, x1 = 0.01499 | – | 0.9047
308.15 K, 100.3 kPa, x1 = 0.017 | – | 0.9282
308.15 K, 101 kPa, x2 = 0.1002 | – | 38.1
308.15 K, 101 kPa, x2 = 0.209 | – | 28.4
308.15 K, 101 kPa, x2 = 0.7002 | 4.24 | –
313 K, 100 kPa, x1 = 0.6023 | – | 13.87
313.15 K, 100 kPa, x1 = 0.0003603 | – | 0.693
313.15 K, 100 kPa, x1 = 0.0003729 | – | 0.693
313.15 K, 100 kPa, x1 = 0.0007203 | – | 0.736
313.15 K, 100 kPa, x1 = 0.0007257 | – | 0.736
313.15 K, 100 kPa, x1 = 0.00108 | – | 0.779
313.15 K, 100 kPa, x1 = 0.0011 | – | 0.779
313.15 K, 100.3 kPa, x1 = 0.0005439 | – | 0.6614
313.15 K, 100.3 kPa, x1 = 0.0009901 | – | 0.6672
313.15 K, 100.3 kPa, x1 = 0.00501 | – | 0.7105
313.15 K, 100.3 kPa, x1 = 0.006973 | – | 0.7302
313.15 K, 100.3 kPa, x1 = 0.009052 | – | 0.7571
313.15 K, 100.3 kPa, x1 = 0.01199 | – | 0.7861
313.15 K, 100.3 kPa, x1 = 0.01499 | – | 0.8177
313.15 K, 100.3 kPa, x1 = 0.017 | – | 0.8403
313.15 K, 101 kPa, x2 = 0 | – | 46.5
313.15 K, 101 kPa, x2 = 0.1014 | 0.991 | –
313.15 K, 101 kPa, x2 = 0.1135 | – | 35.01
313.15 K, 101 kPa, x2 = 0.5014 | – | 9
313.15 K, 101 kPa, x2 = 0.6004 | – | 7.4
313.15 K, 101 kPa, x2 = 0.8493 | 6.99 | –
313.15 K, 101 kPa, x2 = 0.9744 | 5.57 | –
318.15 K, 100 kPa, x1 = 0.0003603 | – | 0.638
318.15 K, 100 kPa, x1 = 0.0003729 | – | 0.638
318.15 K, 100 kPa, x1 = 0.0007203 | – | 0.681
318.15 K, 100 kPa, x1 = 0.0007257 | – | 0.681
318.15 K, 100 kPa, x1 = 0.00108 | – | 0.725
318.15 K, 100 kPa, x1 = 0.0011 | – | 0.725
318.15 K, 100.3 kPa, x1 = 0.0005439 | – | 0.6041
318.15 K, 100.3 kPa, x1 = 0.0009901 | – | 0.6099
318.15 K, 100.3 kPa, x1 = 0.003018 | – | 0.6311
318.15 K, 100.3 kPa, x1 = 0.00501 | – | 0.6489
318.15 K, 100.3 kPa, x1 = 0.006973 | – | 0.6654
318.15 K, 100.3 kPa, x1 = 0.009052 | – | 0.69
318.15 K, 100.3 kPa, x1 = 0.01199 | – | 0.7155
318.15 K, 100.3 kPa, x1 = 0.01499 | – | 0.7441
318.15 K, 100.3 kPa, x1 = 0.017 | – | 0.7642
318.15 K, 101 kPa, x2 = 0.3058 | 2 | –
318.15 K, 101 kPa, x2 = 0.6004 | – | 6.4
323.15 K, 101 kPa, x2 = 0.06153 | – | 29.13
323.15 K, 101 kPa, x2 = 0.209 | – | 16.7
323.15 K, 101 kPa, x2 = 0.4001 | – | 8.4
323.15 K, 101 kPa, x2 = 0.8493 | 7.98 | –
323.15 K, 101 kPa, x2 = 0.9496 | 8.04 | –
323.15 K, 101 kPa, x2 = 0.9744 | 6.74 | –
333.15 K, 101 kPa, x2 = 0 | – | 24.86
333.15 K, 101 kPa, x2 = 0.1135 | – | 18.67
343.15 K, 101 kPa, x2 = 0.2984 | – | 6.5
343.15 K, 101 kPa, x2 = 0.6004 | – | 3.75
343.15 K, 101 kPa, x2 = 0.7 | – | 2.73
343.15 K, 101 kPa, x2 = 0.8999 | – | 1.07
353.15 K, 101 kPa, x2 = 0.1002 | – | 8.6
353.15 K, 101 kPa, x2 = 0.3977 | – | 5.98
353.15 K, 101 kPa, x2 = 0.6004 | – | 3.19
363.15 K, 101 kPa, x2 = 0.03402 | – | 11
363.15 K, 101 kPa, x2 = 0.06153 | – | 10.4
363.15 K, 101 kPa, x2 = 0.2802 | – | 6.65
373.15 K, 101 kPa, x2 = 0 | – | 9.55
373.15 K, 101 kPa, x2 = 0.06153 | – | 8.6

electrical conductivity [S/m], 101 kPa, frequency 6e-05 MHz
Conditions | 308.2 K | 313.2 K | 318.2 K | 323.2 K | 333.2 K | 343.2 K | 353.2 K
x2 = 0.2 | 1.3 | 1.45 | 1.59 | 1.75 | 2.1 | 2.49 | 2.94
x2 = 0.4 | 2.04 | 2.27 | 2.53 | 2.78 | 3.36 | 3.87 | 4.56
x2 = 0.6 | 3.28 | 3.69 | 4.13 | 4.57 | 5.31 | 6.27 | 7.44
x2 = 0.8 | 5.28 | 5.9 | 6.55 | 7.22 | 8.54 | 9.89 | 11.5
